Literature values in patent US20090317483A1, “Bicomponent Bioadhesive for Biomedical Use” (INSTITUTO OFTALMOLOGICO DE ALICANTE, S.L., priority 2004, published 2009).

Conditions: in vivo

Which “closure of corneal perforations” value does the source give for C=C(C#N)C(=O)OCCCC [butyl cyanoacrylate] here?
Its value is “effective”.
